Values quoted from earlier work in the PKSmart pharmacokinetics tables (Seal et al. 2025).
Where a SMILES comes first, the peptide text is derived from it. Bridges are numbered along the chain shown (N, C = ends). [ ]: non-standard residue; d: D form. hArg = N=C(N)NCCCC[CH](N)C(=O)O; Mpa = O=C(O)CCS

Assay: Lombardo, Berellini, Obach 2018, Drug Metab Dispos 46:1466, doi 10.1124/dmd.118.082966
Details: human; for MRT / Vd / clearance / half-life: in vivo, iv; for fraction unbound: plasma

Row | SMILES | MRT [h] | Vd [L/kg] | clearance [mL/min/kg] | half-life [h] | fraction unbound
1 | CCc1cc2c(cc1N1CCC(N3CCOCC3)CC1)C(C)(C)c1[nH]c3cc(C#N)ccc3c1C2=O | 13.8 | 6.35 | 7.69 | 11.7 | 0.003
2 | Cc1onc(-c2ccccc2)c1C(=O)NC1C(=O)N2C(C(=O)O)C(C)(C)S[C@H]12 (some centres not stated) | 0.5 | 0.19 | 6.3 | 0.7 | 0.07
3 | CN1C(=O)C(O)N=C(c2ccccc2Cl)c2cc(Cl)ccc21 (configuration not stated) | 6.7 | 1.6 | 4 | 4.9 | –
4 | CC#C[C@]1(O)CC[C@H]2C3=C(C4=C(CC3)CC(=O)CC4)C(c3ccc(N(C)C)cc3)C[C@@]21C (some centres not stated) | 15.7 | 0.45 | 0.5 | 16.6 | 0.02
5 | CN(C)CCCNC(=O)/C(=C/CCCCC(O)=NO)COc1cccc2ccccc12 | 4.1 | 0.45 | 1.82 | 2.1 | –
6 | NC(Cc1ccccn1)c1ccccc1 (configuration not stated) | 15.1 | 1.62 | 1.8 | 10.4 | –
7 | CCN1CCN(C(=O)NC(C(=O)N[C@]2(OC)C(=O)N3C(C(=O)O)=C(CSc4nnnn4C)CS[C@@H]32)[C@H](C)O)C(=O)C1=O (some centres not stated) | 2.9 | 0.19 | 1.1 | 1.9 | –
8 | CC[N+](CC)(CC)CCOc1cccc(OCC[N+](CC)(CC)CC)c1OCC[N+](CC)(CC)CC | 2.98 | 0.27 | 1.51 | 2.52 | –
9 | O=C(NC1CCN(CCc2c[nH]c3ccccc23)CC1)c1ccccc1 | 4.1 | 4.9 | 20 | 4.3 | 0.15
10 | COc1ccc2cc1Oc1cc3c(cc1OC)CC[N+](C)(C)[C@H]3Cc1ccc(cc1)Oc1c(OC)c(OC)cc3c1[C@@H](C2)[N+](C)(C)CC3 | 5.6 | 0.4 | 1.2 | 5.1 | 0.65
11 | N=C(N)NCCCCC1NC(=O)CCSSCC(C(N)=O)NC(=O)C2CCCN2C(=O)C(Cc2c[nH]c3ccccc23)NC(=O)C(CC(=O)O)NC(=O)CNC1=O (configuration not stated) ([Mpa][hArg]GDWPC-NH2; disulfide 1-7; configuration not given here) | 2.4 | 0.17 | 1.2 | 4.2 | 0.75
12 | CC(=O)O[C@H]1C[C@@]2(C)[C@@H](C[C@@H](O)[C@H]3[C@]4(C)CC[C@@H](O)[C@@H](C)[C@@H]4CC[C@]32C)/C1=C(/CCC=C(C)C)C(=O)O | 10.6 | 0.23 | 0.35 | 9.8 | 0.02
13 | CC[C@@]1(O)C[C@H](O[C@@H]2C[C@H](N3CCOCC3)[C@H](O)[C@H](C)O2)c2c(O)c3c(c(O)c2[C@H]1O)C(=O)c1cccc(O)c1C3=O | 8 | 20.9 | 42.8 | 10.7 | 0.09
14 | CCC(=O)O[C@](Cc1ccccc1)(c1ccccc1)[C@H](C)CN(C)C | 13 | 12 | 15 | 18 | 0.24
15 | OCCO[C@H]1C[C@@H](n2nnc3c(N[C@@H]4C[C@H]4c4ccc(F)c(F)c4)nc(S)nc32)[C@H](O)[C@@H]1O | 6.16 | 1.25 | 3.38 | 6.8 | 0.002
16 | CC(C)(C)c1cnc(CSc2cnc(NC(=O)C3CCNCC3)s2)o1 | 7.13 | 5.14 | 13 | 9.3 | –

Row | SMILES | MRT [h] | Vd [L/kg] | clearance [mL/min/kg] | half-life [h] | fraction unbound
17 | CC[C@]1(O)C[C@H]2CN(CCc3c([nH]c4ccccc34)[C@@](C(=O)OC)(c3cc4c(cc3OC)N(C)[C@H]3[C@@](O)(C(N)=O)[C@H](O)[C@]5(CC)C=CCN6CC[C@]43[C@@H]65)C2)C1 | 38 | 5 | 2.2 | 35 | –
18 | CC1(C)CC[C@]2(C(=O)O)CC[C@]3(COC(=O)C=Cc4cc(O)ccc4NC(=O)/C=C/C(=O)O)C(=CC[C@@H]4[C@@]5(C)CCC(=O)C(C)(C)[C@@H]5CC[C@]43C)[C@@H]2C1 | 3.18 | 1.45 | 7.6 | – | –
19 | N[C@@]1(C(=O)O)CS(=O)(=O)[C@H]2C(C(=O)O)[C@H]21 (some centres not stated) | 1.44 | 0.21 | 2.4 | 1.23 | –
20 | O=c1[nH]c(=O)n(C2CCCO2)cc1F (configuration not stated) | 10.8 | 0.62 | 0.95 | 8.69 | –
21 | CC(C)(C)S(=O)(=O)CC(Cc1ccccc1)C(=O)NC(Cc1c[nH]cn1)C(=O)N[C@@H](CC1CCCCC1)[C@@H](O)C(O)C1CC1 (some centres not stated) | 1.1 | 0.77 | 11.6 | 5.2 | 0.0558
22 | Cc1c(F)cc(C(=O)NC2CC2)cc1-c1ccc(C(=O)NCC(C)(C)C)cn1 | 7.38 | 1.67 | – | 6.95 | –
23 | CC(C)CN(C[C@@H](O)[C@H](Cc1ccccc1)NC(=O)O[C@H]1CO[C@H]2OCC[C@H]21)S(=O)(=O)c1ccc(N)cc1 | – | – | 7.81 | 15 | –
24 | CN(C)c1ccc(O)c2c1C[C@H]1C[C@H]3[C@H](N(C)C)C(O)=C(C(N)=O)C(=O)[C@@]3(O)C(O)=C1C2=O | – | – | – | – | 0.005
25 | CO[C@@H]1[C@@H](O[C@@H]2O[C@H](C)[C@@H](O[C@H]3C[C@@](C)(O)[C@@H](O)[C@H](C)O3)[C@H](N(C)C)[C@H]2O)[C@@H](CC=O)C[C@@H](C)[C@@H](O[C@H]2CC[C@@H](N(C)C)[C@H](C)O2)C=CC=CC[C@@H](C)OC(=O)C[C@H]1O | 7 | – | 12.8 | 5.2 | 0.26
26 | CCCCCc1cc(O)c2c(c1)OC(C)(C)[C@@H]1CCC(C)=C[C@@H]21 | 46 | 8.9 | 3.2 | 33 | 0.05
27 | C[C@](N)(Cc1ccc(O)c(O)c1)C(=O)O | 3.3 | 0.69 | 3.5 | 5.9 | –
28 | COC(C(=O)N1Cc2[nH]nc(NC(=O)c3ccc(N4CCN(C)CC4)cc3)c2C1)c1ccccc1 (configuration not stated) | 6.8 | 2.5 | 6.1 | 25 | –
29 | CN(C)C(=O)Oc1cccc([N+](C)(C)C)c1 | 1.3 | 0.74 | 9.2 | 1.3 | –
30 | CN[C@@H]1[C@H](O[C@H]2[C@H](O[C@H]3[C@H](O)[C@@H](O)[C@H](NC(=N)N)[C@@H](O)[C@@H]3NC(=N)N)O[C@@H](C)[C@]2(O)C=O)O[C@@H](CO)[C@H](O)[C@H]1O | 7.3 | 0.34 | 0.78 | 4.3 | 0.65
31 | CN1CCc2nc(C(=O)N[C@@H]3CC(C(=O)N(C)C)CC[C@@H]3NC(=O)C(=O)Nc3ccc(Cl)cn3)sc2C1 (some centres not stated) | – | – | – | – | 0.5
